In US20100098657A1, “Method of Treating Cancer with Immunomodulatory Compounds and IgG” (priority 2007, published 2010):
Where two headings read alike, the source gives them in different places.

How the values were obtained:
[1] = tested on: Rituximab-coated CD20+ Raji cells; experiment: Monocyte-mediated lysis (ADCC) of Rituximab-coated Raji cells; assay type: cell-based, human
Protocol: (§1) NK cells and monocytes were isolated from fresh, buffy-coated, whole blood by 30-minute incubation with RossetteSep cocktail (StemCell Technologies, Inc.) followed by Ficoll-Hypaque density gradient centrifugation. CD56+ NK cells were isolated to ˜85% purity and CD14+ monocytes were isolated to ˜80% purity as determined by flow cytometry.
(§2) Preparation of Rituximab-coated target cancer cells: Various NHL cell lines (Namalwa, Raji, Farage, and Jeko-1) were treated with 20 μg/mL Rituximab (Rituximab, Genentech, Inc.) for 30 minutes at 37° C. Excess unbound Rituximab was then removed by a washing step.
(§3) Cytotoxicity analysis: NK cell cytotoxicity against the tumor cell lines was analyzed using a standard lactate dehydrogenase release assay (CytoTox 96 Non-radioactive Cytotoxicity Assay, Promega) to measure ADCC in a 50 μL aliquot of supernatant. The experimental release was corrected by subtraction of the spontaneous release of effector cells at the corresponding dilution. Spontaneous release from target cells alone was <15% of the maximum release as determined with target cells lysed in 1% Triton X-100.
(§4) Determination of effector: target ratio: Specific lysis for each effector-to-target (E:T) cell ratio was calculated using the following formula: % specific lysis=([experimental release−spontaneous release]/[maximum release−spontaneous release])×100.
To evaluate monocyte ADCC, similar methods were used to prepare the monocytes.

NK cells [2] = experiment: NK IgG-induced IFN-γ assay; assay type: cell-based, human; details: for EC50: Homo sapiens, read-out: EC50 of enhancement of IFN-γ production
Protocol: as §1
(§5) To determine whether lenalidomide enhances IFN-γ production, the following assay was performed. Human IgG (Sigma), at a concentration of 100 μg/mL was coated onto 96-well, flat-bottom plates at 4° C. overnight. The unbound IgG was then washed away. […] Lenalidomide (Revlimid®, Celgene Corporation, Summit, N.J.) was added to the wells in the concentration range of 0.008-5 μM. After a 48-hour incubation, the supernatants were harvested and interferon-gamma (IFN-γ), as well as granzyme B and perforin levels were measured.

[3] = tested on: Src homology-2 containing inositol 5′-phosphatase 1 (phospho-SHIP-1); experiment: Immunoblot analysis of phospho-SHIP-1; assay type: cell-based; details: IL-12 plus IgG; lenalidomide 10 μM
Protocol: (§6) FIG. 7 is a panel of bar graphs showing the quantitation of an immunoblot comparison of cells treated with either IL-12 alone, IgG alone, IL-12 plus IgG, or IL-12 plus IgG plus lenalidomide (at 0.1 μM to 10 μM).
SHIP-1 is a negative regulator of cell proliferation, survival, and activation and also a negative regulator of Fc-γ and cytokine receptor-mediated signaling (Parihar et al., 2005, Cancer Res. 65:9099-9107). The inhibition of phospho-SHIP-1 increases IFN-γ release following NK cell stimulation with IgG and IL-12 (Parihar et al., 2005, Cancer Res. 65:9099-9107, which is incorporated by reference herein in its entirety) and thus may contribute to the mechanism of action of lenalidomide.

[4] = tested on: Rituximab-coated Raji cells; experiment: ADCC assay: NK cell specific lysis of Rituximab-coated Raji cells; assay type: cell-based, human; details: for EC50: Homo sapiens, Raji
Protocol: (§7) Preparation of NK cells: Purified NK cells (5×10^4) were seeded in 96-well U-bottom plates in 100 μL of 10% RPMI-1640 medium, supplemented with human AB+ serum. […] The cells were then incubated at 37° C. overnight.
as §2
(§8) Addition of Rituximab-coated target cells to NK cells: The Rituximab-coated target cells (5×103/100 μL/well) were added to the pretreated effector NK cells at a ratio of 10:1. The cells were then co-incubated for 4 hours at 37° C.
as §3, §4
Enhancement of NK cell cytotoxicity by immunomodulatory compounds lenalidomide and pomalidomide was assessed following procedures substantially similar to those described in Section 6.3, above.

NK cells [5] = experiment: NK cell expression of growth factors/chemokines (IL-2, IgG, lenalidomide); assay type: cell-based, human; details: lenalidomide 0.1, 1 or 10 μM with IL-2, IgG
Source text: As shown herein, immunomodulatory compounds, either alone or in combination with other agents, can alter the expression of several growth factors.

pPLC-γ2 = experiment: Immunoblot analysis of pPLC-γ2; assay type: cell-based; details: IL-12 plus IgG
Protocol: as §6
(§9) Additionally, administration of the immunomodulatory compound lenalidomide was capable of increasing both pPLC-γ2 and pERK levels (FIGS. 7B and 7C). Increase in the levels of these proteins were also observed in connection with pomalidomide (FIGS. 13A and 13B). PLC-γ2 is involved in the maturation and activation of NK cells and triggers the release of lytic granules (Regunathan et al., 2006, Jour. Immunol 175:749-754, which is incorporated by reference herein in its entirety). PLC-γ2 also induces IFN-γ production and is necessary for cytotoxicity and chemokine production.

[6] = tested on: Rituximab-coated Farage cells; experiment: ADCC assay: NK cell specific lysis of Rituximab-coated Farage cells; assay type: cell-based, human; details: E:T=10:1; for EC50: Homo sapiens, Farage; for increase of cell lysis: vs Rituximab-only treated cells
Protocol: as §7, §2, §8, §3, §4

pERK = experiment: Immunoblot analysis of pERK; assay type: cell-based; details: IL-12 plus IgG
Protocol: as §6, §9

perforin = experiment: NK cell perforin production; assay type: cell-based, human; details: with IL-2
Protocol: as §5

[7] = tested on: Rituximab-coated CD20+ Jeko-1 (mantle cell lymphoma) cells; experiment: ADCC assay: NK cell-mediated killing of Rituximab-coated CD20+ Jeko-1 cells; assay type: cell-based, human
Protocol: as §7, §2
[…] The cells were then co-incubated for 4 hours at 37° C.
as §3, §4

[8] = lenalidomide 1 μM with IL-2, E:T 50:1

Compound: Nc1cccc2c1CN(C1CCC(=O)NC1=O)C2=O (centres unmarked) [lenalidomide, 1-oxo-2-(2,6-dioxopiperidin-3-yl)-4-aminoisoindoline]
- monocyte-mediated lysis ([1]; data not shown): enhance
- increase in tumor cell-lysis activity [1, 8]: 2 fold
- monocyte-mediated killing [1, 8]: > 60%
- EC50 (NK cells [2]; immobilized IgG + IL-2): 90 nM
- EC50 (NK cells [2]; immobilized IgG + IL-12): 46 nM
- enhancement of IFN-γ production of NK cells (NK cells [2]; lenalidomide 0.008-5 μM + human IgG + IL-2, vs IgG plus IL-2 alone): 3 fold
- enhancement of IFN-γ production of NK cells (NK cells [2]; lenalidomide 0.008-5 μM + human IgG + IL-12, vs IgG plus IL-12 alone): 8 fold
- IFN-γ production (NK cells [2]; lenalidomide alone or lenalidomide plus IgG, no IL-2/IL-12): no IFN-γ was observed
- levels of phospho-SHIP-1 [3]: decreased
- increase of NK cell specific lysis ([4]; E:T=10:1, presence of IL-2 or IL-12, vs Rituximab-only treated cells): 2 fold
- EC50 ([4]; IL-2, E:T=10:1): 100 nM
- EC50 ([4]; IL-12, E:T=10:1): 140 nM
- NK cell cytotoxicity ([4]; presence of IL-2 (FIG. 8B/9B)): significantly increases
- NK cell cytotoxicity ([4]; presence of IL-12 (FIG. 8E/9E)): significantly increases
- NK cell expression of GM-CSF (NK cells [5]): increased
- NK cell expression of IL-6 (NK cells [5]): decreased
- NK cell expression of IL-8 (NK cells [5]): increased
- NK cell expression of IP-10 (NK cells [5]): increased
- NK cell expression of RANTES (NK cells [5]): increased
- NK cell expression of monocyte chemotactic protein-1 (MCP-1) (NK cells [5]): increased
- pPLC-γ2 levels (pPLC-γ2): increasing
- EC50 ([6]; IL-2): 42 nM
- EC50 ([6]; IL-12): 33 nM
- increase of cell lysis ([6]; IL-2): 1.8 fold
- increase of cell lysis ([6]; IL-12): 1.6 fold
- pERK levels (pERK): increasing
- perforin production (perforin): no effect
- NK cell-mediated killing ([7]; lenalidomide 1 μM + IL-2, Rituximab-coated cells, E:T 50:1): 95%
- enhancement of NK cell-mediated killing above background ([7]; lenalidomide and Rituximab combined, background killing=40%): 55%
- increase in tumor cell killing above background ([7]; single agent, background killing=40%): 5%
- increase in NK cell-mediated killing activity ([7]; vs Rituximab-only treatment): 1.4 fold
- increase in NK cell-mediated killing activity ([7]; vs uncoated (control) cells): > 2 fold
